Legend:
early p97 HPV16 promoter = test: luciferase assay of p97 promoter activity in keratinocytes transfected with LCR16_Luc; format: cell-based, human
Protocol: The impact of treatment with epigenetic inhibitors (demethylation agents) on the activity of the p97 promoter is assessed using luciferase assay. Normal human keratinocytes transfected with the reporter plasmid LCR16_Luc, which contains the complete LCR fragment of the HPV-16 cloned in front of the luciferase gene were grown to about 50-60% confluence. Cells were treated with 2 μM and 4 μM 5-azacytidin for 24 and 72 hs.

[1] = phase I and II trials, systemic therapy; cited from earlier work
normal human firoblasts = conditions: normal human fibroblasts; cited from earlier work

Structure (SMILES)	p97 promoter activity reduced to (early p97 HPV16 promoter; 2 μM, undifferentiated or differentiated cells, FIG. 9)	p97 promoter activity (early p97 HPV16 promoter; 4 μM, undifferentiated and differentiated cells, FIG. 9)	activity of the early p97 promoter (early p97 HPV16 promoter; normal human keratinocytes, LCR16_Luc reporter, 2 μM and 4 μM for 24 and 72 hs)	dose-limiting toxicity [1]	most commonly reported non-hematologic adverse effect [1]	basal level and TGFβ-induced collagen biosynthesis (normal human firoblasts)
Nc1ncn([C@@H]2O[C@H](CO)[C@@H](O)[C@H]2O)c(=O)n1 [5-azacytidine, 5-Azacytidine]	40-60%	significantly reduced to the basal level	decreased the activity of the early p97 promoter in a dose dependent manner	myelosuppression	nausea and vomiting	inhibits
Nc1ncn([C@H]2C[C@H](O)[C@@H](CO)O2)c(=O)n1 [decitabine, 5-Aza-20-deoxycytidine]	–	–	–	myelosuppression	nausea and vomiting	–
